14 compounds from patent publication US20240246969A1, “HETEROCYCLIC DERIVATIVES AS CAMKK2 INHIBITORS” (Bristol-Myers Squibb Company, priority 2021, published 2024) can be followed below.

Where two headings read alike, the source gives them in different places.

The nature of one data set: PPB, human (h). Type of data set: in vitro ADME. Conditions: plasma, second value of (m, h).
The subject of data set [1] is phosphorylation of CaMKK2 substrate AMPK at Thr172 in A549 lung carcinoma cells. As to the kind of experiment: Cell-based phosphorylation assay (Phospho-AMPK Thr172 HTRF). The conditions noted are these: Homo sapiens; for EC50: A549, read-out: A549 pAMPK MOA EC50; for IC50: A549 cells, compounds 4 hours, 3 uM Calcium Ionophore 30 minutes, read-out: Cellular IC50 Phosphorylation. The procedure: Cellular CaMKK2 inhibition by compounds was measured by monitoring the phosphorylation of CaMKK2 substrate AMPK at Thr172 in A549 lung carcinoma cells (ATCC) using CISBIO Phospho-AMPK (Thr172) HTRF kit. A549 cells were plated in 96 well plates at 8000 cells/well in DMEM+10% FBS+1× pen/step+1×NEAA and incubated at 37° C. overnight in a CO2 incubator. Cells were then treated with compounds for 4 hours. After cells were stimulated by 3 uM Calcium Ionophore (Sigma) at 37° C. for 30 minutes, cells were washed and then lysed with cell lysis buffer (CisBio) for 30 minutes. […] Plates were incubated overnight and then read using HTRF mode by BMG PHERAstarFS.

In the next data set the target is CaMKK2 (Homo sapiens, UniProt Q96RR4). The data set is described as follows: CaMKK2 binding assay (LanthaScreen TR-FRET). The protocol: The ability of test compounds to bind and inhibit the activity of CaMKK2 were determined using a binding assay using LanthaScreent (Thermofisher) detection reagents in a 384-well plate format using the following assay buffer: 50 mM HEPES (pH7.5), 10 mM MgCl2, 1 mM EGTA, and 0.01% Brij-35.
Chain of CaMKK2 (Q96RR4 whole entry): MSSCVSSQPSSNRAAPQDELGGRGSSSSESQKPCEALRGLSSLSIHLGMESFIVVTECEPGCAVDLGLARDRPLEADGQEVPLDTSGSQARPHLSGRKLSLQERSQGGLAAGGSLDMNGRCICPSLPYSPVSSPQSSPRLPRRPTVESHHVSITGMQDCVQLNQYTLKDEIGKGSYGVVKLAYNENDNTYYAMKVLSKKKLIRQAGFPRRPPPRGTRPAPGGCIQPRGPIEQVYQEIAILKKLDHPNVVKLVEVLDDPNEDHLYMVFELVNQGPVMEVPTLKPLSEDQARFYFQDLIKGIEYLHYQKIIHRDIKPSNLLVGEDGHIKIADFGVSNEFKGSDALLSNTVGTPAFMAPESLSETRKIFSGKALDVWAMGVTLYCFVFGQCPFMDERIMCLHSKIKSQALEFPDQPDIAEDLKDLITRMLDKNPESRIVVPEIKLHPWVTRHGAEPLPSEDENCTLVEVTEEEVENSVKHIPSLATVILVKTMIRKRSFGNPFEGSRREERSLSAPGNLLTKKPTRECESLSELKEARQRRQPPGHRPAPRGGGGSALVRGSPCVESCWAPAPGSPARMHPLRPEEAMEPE
A 10-point serial dilution of inhibitor compound in 0.5% DMSO was added to each well of the plate. The final assay volume in well was 15 uL. […] A ratio was calculated from the 2 readouts and fitted to a 4-parameter fit to determine the binding IC50.

Another data set can be described thus: PPB, mouse (m). It is filed as in vitro ADME. The conditions noted are these: plasma, first value of (m, h).
A further data set concerns KSP (72) kinases. More on the design: dose or concentration left out as unconfirmed. The conditions noted are these: of 72 kinases.
A short description of data set [2]: Microsomes stability, mouse (m). It is filed as in vitro ADME. Conditions: first value of (m, h).
For another data set, the target named is CaMKK1 (Homo sapiens, UniProt Q8N5S9). As to the kind of experiment: CaMKK1 IC50. It is filed as binding.
Chain of CaMKK1 (Q8N5S9 whole entry, species assumed): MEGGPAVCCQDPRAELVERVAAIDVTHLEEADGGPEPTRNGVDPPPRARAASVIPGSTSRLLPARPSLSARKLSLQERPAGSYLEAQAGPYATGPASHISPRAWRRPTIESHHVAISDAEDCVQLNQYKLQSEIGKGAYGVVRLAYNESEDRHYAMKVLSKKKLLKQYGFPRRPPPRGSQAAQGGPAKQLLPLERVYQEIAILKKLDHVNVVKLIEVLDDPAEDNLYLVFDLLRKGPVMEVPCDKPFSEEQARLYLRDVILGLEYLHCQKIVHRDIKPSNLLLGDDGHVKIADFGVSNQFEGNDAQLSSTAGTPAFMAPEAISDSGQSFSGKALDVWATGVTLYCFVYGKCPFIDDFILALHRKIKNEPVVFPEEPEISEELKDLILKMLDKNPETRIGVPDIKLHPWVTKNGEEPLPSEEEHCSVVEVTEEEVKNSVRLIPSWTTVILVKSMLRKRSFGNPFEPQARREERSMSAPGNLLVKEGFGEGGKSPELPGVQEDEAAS
A further data set can be described thus: PK. The conditions noted are these: in vivo; read-out: PK % F.
Data set [3] can be described thus: Microsomes stability, human (h). It is filed as in vitro ADME. The conditions noted are these: second value of (m, h).
Another data set relates to pAMPK in A427. The data set is described as follows: A427 pAMPK MOA assay. Type of data set: cell-based. The conditions noted are these: Homo sapiens, A-427.
Data set [4] has as its system A549 lung carcinoma cells. As to the kind of experiment: Cell proliferation assay (CellTiter 96 Aqueous). It is filed as cell-based. Conditions: Homo sapiens, compounds 48 hours, read-out: Cellular IC50 Proliferation. The protocol: Proliferation was measured using CellTiter 96 Aqueous Non-Radioactive Cell Proliferation Assay Kit (Promega), which determines the number of viable cells in culture based on quantitation of dehydrogenase enzymes, as an indicator of metabolically active cells. A549 lung carcinoma cells were seeded at 2,000 cells/well in a 96-well tissue culture treated plate in DMEM+10% FBS+1× pen/step+1×NEAA and incubated at 37° C. overnight in a CO2 incubator. Cells were treated with compounds for 48 hours. Then viability was measured using CellTiter 96 Aqueous Non-Radioactive Cell Proliferation Assay Kit (Promega). Detection was performed using Biotek Cytation 5 Cell Imaging Multi Mode plate reader.

The test system of a further data set is CEREP. As to the kind of experiment: CEREP panel. The conditions noted are these: @ 10 uM.
A further data set addresses 2C9 (Homo sapiens, UniProt P11712). As to the kind of experiment: CYP450 2C9 inhibition. It is filed as in vitro ADME.
A further data set has as its system CYP450. As to the kind of experiment: CYP450 inhibition. Type of data set: in vitro ADME. The conditions noted are these: all isoforms except 2C9.

Chain of 2C9 (P11712 whole entry, canonical isoform): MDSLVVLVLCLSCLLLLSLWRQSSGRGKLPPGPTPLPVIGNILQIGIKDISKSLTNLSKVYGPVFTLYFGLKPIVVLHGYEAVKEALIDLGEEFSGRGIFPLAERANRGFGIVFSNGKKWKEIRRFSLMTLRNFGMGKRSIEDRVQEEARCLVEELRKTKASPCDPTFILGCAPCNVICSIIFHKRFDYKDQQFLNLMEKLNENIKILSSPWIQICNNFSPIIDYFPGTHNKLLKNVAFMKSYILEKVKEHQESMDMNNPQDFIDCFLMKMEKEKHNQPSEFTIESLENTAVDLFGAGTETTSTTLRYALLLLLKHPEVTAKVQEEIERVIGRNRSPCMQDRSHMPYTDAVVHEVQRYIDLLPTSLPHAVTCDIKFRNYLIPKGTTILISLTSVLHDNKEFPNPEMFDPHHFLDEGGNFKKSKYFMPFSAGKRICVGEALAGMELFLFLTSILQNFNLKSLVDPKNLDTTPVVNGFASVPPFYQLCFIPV

As to `CCOc1ccc2c(-c3ccc(C(=O)O)c(C4CCCC4)c3)ccnc2c1` [Example 5.3, 2-cyclopentyl-4-(7-ethoxyquinolin-4-yl)benzoic acid], the fraction unbound was below 0.01 in “PPB, human (h)” and below 0.01 in the data set “PPB, mouse (m)”. Also, the EC50 stood at 60 nM in data set [1] and 30 nM in the data set on pAMPK in A427. Also, the IC50 at CaMKK2 (Table 8) is 1.5 nM; on CaMKK1 it was 1.7 nM. In the data set with KSP (72) kinases, the “Kinase Selectivity KSP (72)” value was 6 of 72 @. Moreover, the “Microsomes (m) CYP/UGT60” value in [2] is “CYP/UGT60: 66, %”. The bioavailability in “PK” is 58%. In addition, in [3], the “Microsomes (h) CYP/UGT60” value was 67%.
Regarding `CCOc1ccc2c(-c3ccc(C(=O)O)c(C(C)C)c3)c(F)cnc2c1` [Example 5.4, 4-(7-ethoxy-3-fluoroquinolin-4-yl)-2-isopropylbenzoic acid], the EC50 in data set [1] worked out at 79 nM. Also, the IC50 at CaMKK2 (Table 8) came to 1.1 nM; against CaMKK1, 1.7 nM. Also, the “Kinase Selectivity KSP (72)” value in the data set with KSP (72) kinases is recorded as 6 of 72 @.
Take `c1cc(-c2nn[nH]n2)c(C2CCCC2)cc1-n1ccc2ncc(C3CC3)nc21` [Example 20, 5-(3-cyclopentyl-4-(2H-tetrazol-5-yl)phenyl)-3-cyclopropyl-5H-pyrrolo[2,3-b]pyrazine]: the IC50 in data set [1] was above 10000 nM; at CaMKK2, below 100 nM; in [4], above 10000 nM.
In the case of `CCOc1cc(F)c2c(-c3ccc(C(=O)O)c(C4CCCC4)c3)ncnc2c1` [Example 5.2, 2-cyclopentyl-4-(7-ethoxy-5-fluoroquinazolin-4-yl)benzoic acid], at CaMKK1, the IC50 turned out to be 12 nM.
For the compound `CCNc1cc(-n2ccc3ncc(-c4ccccc4)nc32)ccc1C(=O)O` [Example 5, 2-(Ethylamino)-4-(3-phenylpyrrolo[2,3-b]pyrazin-5-yl)benzoic Acid], the IC50 in [1] was 100 to 1000 nM; at CaMKK2, below 100 nM; in data set [4], above 10000 nM.
For `O=C(O)c1ccc(-c2ccnc3cn(-c4ccc(F)cc4)nc23)cc1C1CCCC1` [Example 3.1, 2-Cyclopentyl-4-[2-(4-fluorophenyl)pyrazolo[4,3-b]pyridin-7-yl]benzoic Acid] the same measures were 100 to 1000 nM, below 100 nM and above 10000 nM.
The like results for `CCOc1cccc(-c2cc3nccc(-c4ccc(C(=O)O)c(C5CCCC5)c4)n3n2)c1` [Example 2.10, 2-Cyclopentyl-4-(2-(3-ethoxyphenyl)pyrazolo[1,5-a]pyrimidin-7-yl)benzoic Acid] were, in that order, 100 to 1000 nM, below 100 nM and above 10000 nM.
The like results for `O=C(O)c1ccc(-c2c(F)cnc3cn(-c4ccc(F)cc4)nc23)cc1C1CCCC1` [Example 3.5, 2-Cyclopentyl-4-(6-fluoro-2-(4-fluorophenyl)-2H-pyrazolo[4,3-b]pyridin-7-yl)benzoic Acid] were, in that order, 100 to 1000 nM, below 100 nM and above 10000 nM.
`CCOc1ccc2c(-c3ccc(C(=O)O)c(C4CCCC4)c3)ncnc2c1` [Example 5.1, 2-cyclopentyl-4-(7-ethoxyquinazolin-4-yl)benzoic acid] displayed a fraction unbound in “PPB, human (h)” of 0.01. Moreover, the CEREP result in the data set with CEREP was “no inhibition >50%”. The “CYP450 2C9” value on 2C9 is 2C9 (4 mM). In “PPB, mouse (m)”, this compound showed an unbound share (fraction unbound) of 0.015. In [2], the “Microsomes (m) Stability60” value is “Stability60: 96, %” and the “Microsomes (m) UGT” value was determined as 79%. In addition, the bioavailability in “PK” came out at 80%. In data set [3], the “Microsomes (h) Stability60” value is given as 100% and the “Microsomes (h) UGT” value amounted to 89%. The same compound registered a CYP450 with CYP450 above 30 µM. In addition, the EC50 in the data set with pAMPK in A427 was 74 nM.
As for `O=C(O)c1ccc(-c2c(F)cnc3cn(-c4cccc(C(F)(F)F)c4)nc23)cc1C1CCCC1` [Example 3.9, 2-Cyclopentyl-4-(6-fluoro-2-(3-(trifluoromethyl)phenyl)-2H-pyrazolo[4,3-b]pyridin-7-yl)benzoic Acid], the IC50 in data set [1] is 100 to 1000 nM; on CaMKK2, below 100 nM; in data set [4], above 10000 nM.
For `COc1cc(F)cc(-n2cc3ncc(F)c(-c4ccc(C(=O)O)c(C5CCCC5)c4)c3n2)c1` [Example 3.17, 2-Cyclopentyl-4-(6-fluoro-2-(3-fluoro-5-methoxyphenyl)-2H-pyrazolo[4,3-b]pyridin-7-yl)benzoic Acid] the same measures were 100 to 1000 nM, below 100 nM and above 10000 nM.
The like results for `O=C(O)c1ccc(-c2ccnn3cc(-c4ccccc4)cc23)cc1C1CCCC1` [Example 4.1, 2-Cyclopentyl-4-(6-phenylpyrrolo[1,2-b]pyridazin-4-yl)benzoic Acid] were, in that order, 100 to 1000 nM, below 100 nM and above 10000 nM.
The like results for `CCNc1cc(-n2ccc3ncc(-c4ccc(F)cc4F)nc32)ccc1C(=O)O` [Example 9, 4-(3-(2,4-Difluorophenyl)-5H-pyrrolo[2,3-b]pyrazin-5-yl)-2-(ethylamino)benzoic Acid] were, in that order, 100 to 1000 nM, below 100 nM and above 10000 nM.
Turning to `Cc1cc(OC(F)(F)F)cc(-n2cc3ncc(F)c(-c4ccc(C(=O)O)c(C5CCCC5)c4)c3n2)c1` [Example 3.18, 2-Cyclopentyl-4-(6-fluoro-2-(3-methyl-5-(trifluoromethoxy)phenyl)-2H-pyrazolo[4,3-b]pyridin-7-yl)benzoic Acid], the IC50 was 100 to 1000 nM in [1], below 100 nM at CaMKK2 and above 10000 nM in data set [4].
